How the values were obtained:
Group3 (Ms)MB cells = experiment: EdU incorporation, proliferation of MB group3 (Mouse) cells; type: cell-based; settings: T3, 72 hours
Procedure: (§1) The EdU incubated cells were cultured at 1 μM in culture medium for 1 hour. 4% PFA was used to fix the cells for 10 minutes. The cells were incubated with the staining solution for 20 minutes in the dark. The cells were washed with PBST for 5 minutes/time for 3 times.
(§2) The percentage of EdU+ cells in the culture was quantified (see, FIG. 6, Panel A). […] The percentage of EdU+ cells in the culture was quantified (see, FIG. 6, Panel B). […] The percentage of EdU+ cells in the culture were quantified (see, FIG. 6, Panel C). […] Thus, thyroid hormone may be used to treat different type of medulloblastoma.

D341 = experiment: EdU incorporation, proliferation of human MB group3 cell line D341; type: cell-based; settings: D341, T3, 72 hours
From the text: (§3) MB cells were isolated from Math1-Cre/Ptch1^fl/fl, Math1-Cre/Ptch1^fl/fl/Cas9 and SmoM2 tumor-bearing mice at 6 to 8 weeks of age, respectively. Tumor tissue was dissociated in a papain solution to obtain a single-cell suspension and then centrifuged through a 35% and 65% Percoll gradient. Cells from the 35% to 65% interface were suspended in Dulbecco's PBS (DPBS) plus 0.5% BSA. Cells were then suspended in NB-B22 (B22 supplement followed protocol in Jacob Hanna's lab) and plated on poly-D-lysine (PDL)-coated coverslips (BD Biosciences). D283, D341 and MB-shh cell lines were cultured in DMEM with 10% fetal bovine serum, 1% Pen/Strep and 2 mM L-glutamine (Invitrogen).
as §1, §2

MB cells = experiment: Immunostaining of differentiation marker MAP2 in MB cells; type: cell-based, mouse; settings: MB cells treated by T3 for 48 hours
Procedure: Immunofluorescent staining of cells was carried out according to standard methods. Briefly, cells were blocked and permeabilized for 1 hour with PBS containing 0.1% Triton X-100 and 10% normal goat serum, stained with primary antibodies (1:400) overnight at 4° C. and incubated with secondary antibodies (1:500) for 1 hour. Cells were counterstained with DAPI and mounted with Fluoromount-G (Southern Biotech) before being visualized using a Nikon Eclipse Ti microscope.

[1] = test system: MB cells isolated from Math1-Cre/Ptch1^fl/fl tumor mice; experiment: Cell Counting Kit-8 (CCK8) assay of MB cells, T3 and cisplatin; type: cell-based, mouse
Procedure: MB cells were treated with vehicle (DMSO) as a control. […] The survival of MB cells was measured by Cell Counting Kit-8 (CCK8) following the treatment.

MB ptch−/− cells = experiment: EdU incorporation, proliferation of MB ptch−/− cells; type: cell-based, mouse; settings: NB-B22 cultured MB ptch−/− cells, different concentrations of T3, 48 hours; inhibition concentration dependent
From the text: as §3
(§4) GDC0449 (50 mg/kg) diluted using MCT and administrated to mice by oral gavage once a day. […] Log-rank survival analyses were performed in GraphPad Prism 9.
as §1
The inhibition was concentration dependent. The percentage of EdU+ cells in the culture were quantified (see, FIG. 1, Panel B). DAPI was used to counterstain cell nuclei.

RCMB28 cells = test system: RCMB28 cells
Procedure: as §4
(§5) MB cells were stereotaxically injected into the cerebellum of 6- to 8-week-old SCID mice. Before transplantation, MB cells were infected with lentivirus carrying firefly luciferase for 24 hours. For transplantation with MB cells after the virus infection, the cell suspension was centrifuged at 1000 rpm for 5 minutes to remove the supernatant. 1×10^6 cells (based on Trypan blue staining) were injected into the cerebellum of each mouse. Animals were monitored weekly using in vivo bioluminescence imaging.
G3-MB PDOXs were generated by intracranial transplantation of RCMB28 cells transduced with a luciferase expressing construct.

SmoM2 tumor mice = experiment: Survival and tumor markers in SmoM2 tumor mice; type: in vivo, mouse
Procedure: (§6) Math1-Cre mice, Ptch1^fl/fl mice, R26-SmoM2 mice, Math1-CreER mice, CAG-Cas9 mice and were purchased from the Jackson Laboratory. All mice were bred and genotyped as recommended by the Jackson Laboratory. CB17/SCID mice were bred in the Fox Chase Cancer Center Laboratory Animal Facility (LAF).
as §4
Conversely, pHH3, a cell proliferation maker, was decreased in T3-treated mice tumor tissues (see, FIG. 5, Panel B).

[2] = test system: Shh type PDX-luciferase cells; experiment: Human shh type MB PDX-luciferase growth in cerebellum of SCID mice (bioluminescence); type: in vivo; settings: SCID mice treated by T3 for 3 weeks vs untreated controls
Procedure: as §4, §5

D283 = experiment: EdU incorporation, proliferation of human MB group3 cell line D283; type: cell-based; settings: D283, T3, 72 hours
From the text: as §3, §1, §2

[3] = test system: Math1-Cre/Ptch1^fl/fl tumor mice; experiment: Survival and tumor markers in Math1-Cre/Ptch1fl/fl tumor mice; type: in vivo, mouse
Procedure: as §6, §4

[4] = T3 200 ng/g i.p. twice a day vs without T3
[5] = T3-treated mice, immunohistochemistry

Compound	proliferation of group3 tumor cells (percentage of EdU+ cells) (Group3 (Ms)MB cells)	proliferation of group3 tumor cells (percentage of EdU+ cells) (D341)	MAP2 expression (differentiation marker) (MB cells)	MB cell proliferation (CCK8) ([1]; T3 alone at two concentrations vs vehicle (DMSO))	proliferation of medulloblastoma cells (percentage of EdU+ cells) (MB ptch−/− cells)	survival of recipient mice (RCMB28 cells; T3 i.p. compared with PBS treatment, p<0.01)	tumor progression in recipient mice (RCMB28 cells; T3 i.p. vs PBS, after tumors were established)	median survival (RCMB28 cells; T3 i.p., PBS treatment 15 days, p<0.01)	mice survival (SmoM2 tumor mice; [4])	NeuN (differentiation marker) expression in tumor tissues (SmoM2 tumor mice; [5])	pHH3 (cell proliferation marker) in tumor tissues (SmoM2 tumor mice; [5])	MB growth (in vivo bioluminescence) [2]	proliferation of group3 tumor cells (percentage of EdU+ cells) (D283)	mice survival [3, 4]	tumor progression in vivo ([3]; T3-treated mice)	NeuN (differentiation marker) expression in tumor tissues [3, 5]	pHH3 (cell proliferation marker) in tumor tissues [3, 5]	cell proliferation / survival of MB cells (CCK8) ([1]; cisplatin alone at seven different concentrations vs vehicle (DMSO))
N[C@@H](Cc1cc(I)c(Oc2ccc(O)c(I)c2)c(I)c1)C(=O)O [T3, triiodothyronine]	significantly inhibited	significantly inhibited	increased	decreased	significantly inhibited	significantly prolonged	significantly repressed	undefined	prolonged	enhanced expression	decreased	significantly inhibited	significantly inhibited	prolonged	repressed tumor progression	enhanced expression	decreased	–
N.N.[Cl][Pt][Cl] [cisplatin]	–	–	–	–	–	–	–	–	–	–	–	–	–	–	–	–	–	inhibited cell proliferation significantly except 31.23 nM and 62.5 nM

From patent US20260091012A1, “Methods Of Treating Meduloblastoma With Thyroid Hormone” (Institute For Cancer Research d/b/a The Research Institute …, priority 2022, published 2026)
